Values quoted from earlier work in patent US20030181473A1, “Farnesyl protein transferase inhibitor combinations with taxane compounds” (priority 2000, published 2003).

What was measured:
human tumor cells = details: combination of paclitaxel and the farnesyl transferase inhibitor, in vitro
colon cancer (LoVo) = details: combination of paclitaxel and the farnesyl transferase inhibitor; mouse colon cancer (LoVo) model

Cn1cncc1C(N)(c1ccc(Cl)cc1)c1ccc2c(c1)c(-c1cccc(Cl)c1)cc(=O)n2C (single isomer, unassigned; (+)) [(+)-6-[amino(4-chlorophenyl)(1-methyl-1H-imidazol-5-yl)methyl]-4-(3-chlorophenyl)-1-methyl-2(1H)-quinolinone]
anti-tumor effect of the combination (human tumor cells): additive anti-tumor effect
anti-tumor effect of the combination (colon cancer (LoVo)): additive anti-tumor effect
